# The source made the active and inactive calls. No cut-off for these calls is given here.
# Legend:
# NCI-H2228 [1] = experiment: cells; conditions: Homo sapiens, NCI-H2228, 72 h
# Description: Antiproliferative activity against EML4-ALK-positive human NCI-H2228 cells incubated for 72 hrs and measured by CCK-8 assay
# [2] = molecular target: ALK tyrosine kinase receptor (Homo sapiens, UniProt Q9UM73); experiment: Inhibition of ALK (unknown origin) incubated for 1 hr and measured by mobility shift assay
# NCI-H2228 [3] = experiment: Inhibition of cell migration in EML4-ALK-positive human NCI-H2228 cells assessed as relative migration rate at 10 nM measured after 48 hrs by cell scratch assay (reference value: 35.99 %); type: functional; design: scale not given: the % may be the effect or the level left
# NCI-H2228 [4] = experiment: Cell cycle arrest in EML4-ALK-positive human NCI-H2228 cells assessed as cells accumulation at S phase at 50 nM (reference value: 35.48%); type: functional
# [5] = molecular target: ALK tyrosine kinase receptor (Homo sapiens, UniProt Q9UM73, G1202R); experiment: Inhibition of ALK G1202R mutant (unknown origin) incubated for 1 hr and measured by mobility shift assay
# Sequence of ALK tyrosine kinase receptor (Homo sapiens, UniProt Q9UM73, G1202R) (Q9UM73 19-1620 G1202R limits assumed): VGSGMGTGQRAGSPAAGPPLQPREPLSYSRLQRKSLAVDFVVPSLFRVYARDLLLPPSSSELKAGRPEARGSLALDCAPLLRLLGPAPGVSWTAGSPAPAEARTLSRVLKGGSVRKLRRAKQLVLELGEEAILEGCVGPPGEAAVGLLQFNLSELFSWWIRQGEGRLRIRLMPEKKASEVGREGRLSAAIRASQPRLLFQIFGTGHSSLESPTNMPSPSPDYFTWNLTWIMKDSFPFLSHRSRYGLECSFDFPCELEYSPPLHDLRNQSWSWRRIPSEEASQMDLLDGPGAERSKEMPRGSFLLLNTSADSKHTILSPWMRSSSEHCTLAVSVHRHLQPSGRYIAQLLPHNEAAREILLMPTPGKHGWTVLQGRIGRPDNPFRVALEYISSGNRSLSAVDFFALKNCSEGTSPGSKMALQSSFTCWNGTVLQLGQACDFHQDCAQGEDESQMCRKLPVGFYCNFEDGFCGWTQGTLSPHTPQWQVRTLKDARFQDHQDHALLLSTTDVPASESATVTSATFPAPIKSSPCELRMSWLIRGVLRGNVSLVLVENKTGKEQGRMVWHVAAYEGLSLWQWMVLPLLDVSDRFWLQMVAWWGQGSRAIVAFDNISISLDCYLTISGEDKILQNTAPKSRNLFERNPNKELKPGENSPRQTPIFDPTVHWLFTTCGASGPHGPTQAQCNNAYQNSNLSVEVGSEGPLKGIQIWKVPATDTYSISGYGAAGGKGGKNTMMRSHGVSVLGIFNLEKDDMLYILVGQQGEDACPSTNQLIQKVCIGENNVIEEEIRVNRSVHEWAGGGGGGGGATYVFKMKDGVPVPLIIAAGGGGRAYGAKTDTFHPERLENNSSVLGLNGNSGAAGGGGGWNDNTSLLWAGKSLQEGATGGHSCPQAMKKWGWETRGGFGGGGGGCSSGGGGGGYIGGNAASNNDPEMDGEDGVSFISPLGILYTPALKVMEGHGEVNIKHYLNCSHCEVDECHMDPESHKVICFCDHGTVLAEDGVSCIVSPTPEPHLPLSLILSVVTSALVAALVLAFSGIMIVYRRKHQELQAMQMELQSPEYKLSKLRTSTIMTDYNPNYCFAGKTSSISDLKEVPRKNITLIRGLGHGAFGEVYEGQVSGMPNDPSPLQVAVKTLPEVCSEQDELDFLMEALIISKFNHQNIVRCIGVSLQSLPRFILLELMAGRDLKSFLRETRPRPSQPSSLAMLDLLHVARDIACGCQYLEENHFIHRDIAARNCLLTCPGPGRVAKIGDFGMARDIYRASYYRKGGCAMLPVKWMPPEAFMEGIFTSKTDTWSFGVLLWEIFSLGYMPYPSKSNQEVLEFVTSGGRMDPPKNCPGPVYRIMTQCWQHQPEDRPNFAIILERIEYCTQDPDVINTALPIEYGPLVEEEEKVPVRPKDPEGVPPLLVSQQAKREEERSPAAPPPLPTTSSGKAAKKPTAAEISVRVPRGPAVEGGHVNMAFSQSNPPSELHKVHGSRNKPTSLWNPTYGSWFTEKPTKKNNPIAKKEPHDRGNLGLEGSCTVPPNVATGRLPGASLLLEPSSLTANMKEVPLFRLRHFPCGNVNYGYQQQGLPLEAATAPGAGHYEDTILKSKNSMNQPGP
# [6] = molecular target: Epidermal growth factor receptor (Homo sapiens, UniProt P00533); experiment: Inhibition of EGFR (unknown origin) incubated for 1 hr and measured by mobility shift assay
# Sequence of Epidermal growth factor receptor (P00533 whole entry): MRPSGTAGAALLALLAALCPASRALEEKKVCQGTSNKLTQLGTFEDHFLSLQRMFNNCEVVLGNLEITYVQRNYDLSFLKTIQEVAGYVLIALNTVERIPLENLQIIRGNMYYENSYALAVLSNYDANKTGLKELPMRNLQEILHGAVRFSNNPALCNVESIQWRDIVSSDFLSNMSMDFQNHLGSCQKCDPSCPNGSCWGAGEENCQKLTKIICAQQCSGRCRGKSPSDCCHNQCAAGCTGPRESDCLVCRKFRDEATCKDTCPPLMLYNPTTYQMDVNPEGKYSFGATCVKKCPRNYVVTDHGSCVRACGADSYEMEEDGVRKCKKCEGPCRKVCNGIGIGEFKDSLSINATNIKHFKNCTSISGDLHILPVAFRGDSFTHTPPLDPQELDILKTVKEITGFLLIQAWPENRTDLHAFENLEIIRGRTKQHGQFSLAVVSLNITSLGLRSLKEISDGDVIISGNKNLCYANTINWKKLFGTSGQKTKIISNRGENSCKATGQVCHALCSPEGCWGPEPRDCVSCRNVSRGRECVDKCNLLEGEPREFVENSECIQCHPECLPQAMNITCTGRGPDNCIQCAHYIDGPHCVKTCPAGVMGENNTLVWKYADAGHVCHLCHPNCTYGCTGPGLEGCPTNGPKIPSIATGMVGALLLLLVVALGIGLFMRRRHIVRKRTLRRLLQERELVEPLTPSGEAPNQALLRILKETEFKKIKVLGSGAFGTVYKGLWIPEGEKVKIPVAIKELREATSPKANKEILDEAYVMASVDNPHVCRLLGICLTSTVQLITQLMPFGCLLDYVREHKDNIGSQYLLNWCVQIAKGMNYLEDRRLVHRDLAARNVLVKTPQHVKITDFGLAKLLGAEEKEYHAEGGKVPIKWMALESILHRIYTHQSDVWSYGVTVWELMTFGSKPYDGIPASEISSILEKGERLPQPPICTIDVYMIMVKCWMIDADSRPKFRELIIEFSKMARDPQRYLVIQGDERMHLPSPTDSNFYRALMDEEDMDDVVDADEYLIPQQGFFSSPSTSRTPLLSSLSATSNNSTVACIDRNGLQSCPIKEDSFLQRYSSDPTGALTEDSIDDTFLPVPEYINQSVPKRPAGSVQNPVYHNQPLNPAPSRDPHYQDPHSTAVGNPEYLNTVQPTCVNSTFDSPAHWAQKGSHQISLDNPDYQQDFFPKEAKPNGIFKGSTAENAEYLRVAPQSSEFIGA
# PC-3 = experiment: Antiproliferative activity against human PC-3 cells incubated for 72 hrs and measured by CCK-8 assay; type: functional, cell-based; conditions: PC-3, 72 h
# NCI-H1581 = experiment: Antiproliferative activity against human NCI-H1581 cells incubated for 72 hrs and measured by CCK-8 assay; type: functional, cell-based; conditions: NCI-H1581, 72 h
# NCI-H2228 [7] = experiment: Cell cycle arrest in EML4-ALK-positive human NCI-H2228 cells assessed as cells accumulation at S phase at 100 nM (reference value: 35.48%); type: functional
# [8] = Cytotoxicity against human HELF cells incubated for 72 hrs and measured by CCK-8 assay; type: toxicity, cell-based
# HCT-116 = experiment: Antiproliferative activity against human HCT-116 cells incubated for 72 hrs and measured by CCK-8 assay; type: functional, cell-based; conditions: HCT-116, 72 h
# NCI-H2228 [9] = experiment: Induction of apoptosis in EML4-ALK-positive human NCI-H2228 cells assessed as apoptotic rate at 200 nM measured after 48 hrs by annexin V-FITC/propidium iodide staining based flow cytometry (reference value: 6.6%); type: functional
# NCI-H2228 [10] = experiment: Induction of apoptosis in EML4-ALK-positive human NCI-H2228 cells assessed as increase in apoptotic cells at 100 to 200 nM measured after 48 hrs by Hoechst 33342 staining based assay; type: functional, cell-based; conditions: dose 100-200 nM, DDE = dose-dependent effect
# NCI-H2228 [11] = experiment: Cell cycle arrest in EML4-ALK-positive human NCI-H2228 cells assessed as cells accumulation at G2/M phase at 25 nM (reference value: 11.28%); type: functional
# NCI-H2228 [12] = experiment: Antiproliferative activity against EML4-ALK-positive human NCI-H2228 cells incubated for 3 days at 25 to 100 nM and assessed as decrease in number of colonies by colony formation assay; type: functional, cell-based; conditions: dose 25-100 nM, time 3.0 day
# NCI-H460 = experiment: Antiproliferative activity against human NCI-H460 cells incubated for 72 hrs and measured by CCK-8 assay; type: functional, cell-based; conditions: NCI-H460, 72 h
# [13] = Toxicity in female BALB/c nude mouse xenografted with EML4-ALK-positive human NCI-H2228 cells assessed as body weight loss at 25 to 50 mg/kg, IG administered every 2 days for 7 times; type: organism-based; conditions: in vivo, po, 48 h, dose 25-50 mg/kg, time 2 day
# NCI-H3122 = experiment: cells; conditions: Homo sapiens, NCI-H3122, 72 h
# Description: Antiproliferative activity against EML4-ALK-positive human NCI-H3122 cells incubated for 72 hrs and measured by CCK-8 assay
# NCI-H2228 [14] = experiment: Inhibition of cell migration in EML4-ALK-positive human NCI-H2228 cells assessed as relative migration rate at 5 nM measured after 24 hrs by cell scratch assay (reference value: 21.4 %); type: functional; design: scale not given: the % may be the effect or the level left
# NCI-H2228 [15] = experiment: Cell cycle arrest in EML4-ALK-positive human NCI-H2228 cells assessed as cells accumulation at G0/G1 phase at 25 nM (reference value: 53.24%); type: functional
# KARPAS-299 = experiment: cells; conditions: Homo sapiens, KARPAS-299, 72 h
# Description: Antiproliferative activity against NPM-ALK-positive human KARPAS-299 cells incubated for 72 hrs and measured by CCK-8 assay
# NCI-H2228 [16] = experiment: Antitumor activity against EML4-ALK-positive human NCI-H2228 cells xenografted in female BALB/c nude mouse assessed as tumor growth inhibition at 50 mg/kg, IG administered every 2 days for 7 times; type: functional; conditions: NCI-H2228, po, 48 h, time 2 day, read-out: TGI
# [17] = Metabolic stability in Sprague-Dawley rat liver microsomes assessed as half life at 10 uM preincubated for 5 mins followed by NADPH addition and measured upto 60 mins by HPLC analysis; type: ADME, Microsome
# NCI-H2228 [18] = experiment: Inhibition of cell migration in EML4-ALK-positive human NCI-H2228 cells assessed as relative migration rate at 5 nM measured after 48 hrs by cell scratch assay (reference value: 35.99 %); type: functional; design: scale not given: the % may be the effect or the level left
# [19] = Metabolic stability in Sprague-Dawley rat liver microsomes assessed as compound remaining at 10 uM preincubated for 5 mins followed by NADPH addition and measured upto 60 mins by HPLC analysis; type: ADME, Microsome; conditions: read-out: Stability
# A549 = experiment: cells; conditions: Homo sapiens, A549, 72 h
# Description: Antiproliferative activity against EGFR-positive human A549 cells incubated for 72 hrs and measured by CCK-8 assay
# NCI-H2228 [20] = experiment: Inhibition of cell migration in EML4-ALK-positive human NCI-H2228 cells assessed as relative migration rate at 10 nM measured after 24 hrs by cell scratch assay (reference value: 21.4 %); type: functional; design: scale not given: the % may be the effect or the level left
# NCI-H2228 [21] = experiment: Cell cycle arrest in EML4-ALK-positive human NCI-H2228 cells assessed as cells accumulation at G2/M phase at 50 nM (reference value: 11.28%); type: functional
# [22] = Intrinsic clearance in Sprague-Dawley rat liver at 10 uM preincubated for 5 mins followed by NADPH addition and measured upto 60 mins by HPLC analysis; type: ADME, tissue-based; conditions: read-out: CLH
# [23] = Metabolic stability in Sprague-Dawley rat liver microsomes assessed as compound remaining at 10 uM preincubated for 5 mins and measured upto 60 mins by HPLC analysis; type: ADME, Microsome; conditions: read-out: Stability
# NCI-H2228 [24] = experiment: Cell cycle arrest in EML4-ALK-positive human NCI-H2228 cells assessed as cells accumulation at G0/G1 phase at 50 nM (reference value: 53.24%); type: functional
# [25] = molecular target: ALK tyrosine kinase receptor (Homo sapiens, UniProt Q9UM73, L1196M); experiment: Inhibition of ALK L1196M mutant (unknown origin) incubated for 1 hr and measured by mobility shift assay
# Sequence of ALK tyrosine kinase receptor (Homo sapiens, UniProt Q9UM73, L1196M) (Q9UM73 19-1620 L1196M limits assumed): as the sequence (Q9UM73 19-1620 G1202R limits assumed) above, with L1178M, R1184G counted along it
# NCI-H2228 [26] = experiment: Cell cycle arrest in EML4-ALK-positive human NCI-H2228 cells assessed as cells accumulation at G2/M phase at 100 nM (reference value: 11.28%); type: functional
# MCF7 = experiment: Antiproliferative activity against human MCF7 cells incubated for 72 hrs and measured by CCK-8 assay; type: functional, cell-based; conditions: MCF7, 72 h
# NCI-H2228 [27] = experiment: Cell cycle arrest in EML4-ALK-positive human NCI-H2228 cells assessed as cells accumulation at G0/G1 phase at 100 nM (reference value: 53.24%); type: functional
# [28] = Intrinsic clearance in Sprague-Dawley rat liver microsomes at 10 uM preincubated for 5 mins followed by NADPH addition and measured upto 60 mins by HPLC analysis; type: ADME, Microsome; conditions: read-out: CLH
# NCI-H2228 [29] = experiment: Induction of apoptosis in EML4-ALK-positive human NCI-H2228 cells assessed as apoptotic rate at 100 nM measured after 48 hrs by annexin V-FITC/propidium iodide staining based flow cytometry (reference value: 6.6%); type: functional
# NCI-H2228 [30] = experiment: Cell cycle arrest in EML4-ALK-positive human NCI-H2228 cells assessed as cells accumulation at S phase at 25 nM (reference value: 35.48%); type: functional
# NCI-H2228 [31] = experiment: Induction of apoptosis in EML4-ALK-positive human NCI-H2228 cells assessed as increase in apoptotic cells at 100 to 200 nM measured after 48 hrs by AO/EB staining based inverted fluorescence microscopic analysis; type: functional, cell-based; conditions: dose 100-200 nM, DDE = dose-dependent effect
# Sequence of ALK tyrosine kinase receptor (Homo sapiens, UniProt Q9UM73) (Q9UM73 whole entry): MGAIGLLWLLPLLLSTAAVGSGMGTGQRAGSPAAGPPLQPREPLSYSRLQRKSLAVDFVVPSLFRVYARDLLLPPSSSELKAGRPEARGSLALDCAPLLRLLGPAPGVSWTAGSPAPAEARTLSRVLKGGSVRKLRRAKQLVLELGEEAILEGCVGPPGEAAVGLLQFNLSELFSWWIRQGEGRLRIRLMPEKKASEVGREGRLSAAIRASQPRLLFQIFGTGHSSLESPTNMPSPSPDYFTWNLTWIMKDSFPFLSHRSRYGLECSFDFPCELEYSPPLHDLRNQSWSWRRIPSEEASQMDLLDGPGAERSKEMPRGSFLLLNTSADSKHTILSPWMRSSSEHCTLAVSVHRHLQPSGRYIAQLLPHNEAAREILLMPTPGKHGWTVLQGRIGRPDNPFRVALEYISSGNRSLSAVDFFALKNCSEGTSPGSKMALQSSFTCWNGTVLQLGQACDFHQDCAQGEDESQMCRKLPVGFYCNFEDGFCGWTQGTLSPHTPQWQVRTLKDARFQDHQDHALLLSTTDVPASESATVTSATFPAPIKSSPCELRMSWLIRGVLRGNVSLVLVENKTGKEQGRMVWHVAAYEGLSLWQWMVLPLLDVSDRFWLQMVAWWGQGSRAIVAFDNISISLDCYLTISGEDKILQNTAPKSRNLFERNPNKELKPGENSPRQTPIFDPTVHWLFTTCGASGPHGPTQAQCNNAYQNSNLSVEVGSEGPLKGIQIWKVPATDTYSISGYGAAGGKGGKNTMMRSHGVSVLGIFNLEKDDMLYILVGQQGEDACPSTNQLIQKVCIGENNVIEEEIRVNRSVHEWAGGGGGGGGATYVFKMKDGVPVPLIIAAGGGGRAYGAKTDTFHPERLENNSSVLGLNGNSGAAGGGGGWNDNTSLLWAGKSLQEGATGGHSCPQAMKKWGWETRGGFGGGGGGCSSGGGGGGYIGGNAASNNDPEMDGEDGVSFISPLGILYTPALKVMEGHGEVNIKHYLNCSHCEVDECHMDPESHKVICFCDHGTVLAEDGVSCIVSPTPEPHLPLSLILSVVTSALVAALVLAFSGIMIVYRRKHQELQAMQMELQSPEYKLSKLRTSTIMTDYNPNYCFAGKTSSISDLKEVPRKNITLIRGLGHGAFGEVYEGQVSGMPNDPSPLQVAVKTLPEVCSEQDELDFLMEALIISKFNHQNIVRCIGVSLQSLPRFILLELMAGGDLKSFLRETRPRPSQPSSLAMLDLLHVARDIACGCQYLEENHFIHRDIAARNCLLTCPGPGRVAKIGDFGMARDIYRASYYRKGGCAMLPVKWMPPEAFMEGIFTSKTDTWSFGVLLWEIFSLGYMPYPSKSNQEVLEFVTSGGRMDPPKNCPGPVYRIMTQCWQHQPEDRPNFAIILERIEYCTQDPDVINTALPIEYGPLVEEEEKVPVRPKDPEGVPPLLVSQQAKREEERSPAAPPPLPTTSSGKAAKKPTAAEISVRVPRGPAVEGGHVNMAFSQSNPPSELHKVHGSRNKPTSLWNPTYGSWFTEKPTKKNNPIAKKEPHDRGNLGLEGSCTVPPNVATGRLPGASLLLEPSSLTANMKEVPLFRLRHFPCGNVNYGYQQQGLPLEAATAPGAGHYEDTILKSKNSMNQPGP
structure (smiles),measurement,setting,value
CC(C)S(=O)(=O)c1ccccc1Nc1nc(Nc2ccc3c(NC(=O)CN4CCCC4)n[nH]c3c2)ncc1Cl,IC50,NCI-H2228 [1],17 nM
same,IC50,[2],1.6 nM
same,Activity,NCI-H2228 [3],5.01%
same,Activity,NCI-H2228 [4],7.4%
same,IC50,[5],1.3 nM
same,IC50,[6],> 1000 nM
same,IC50,PC-3,1230 nM
same,IC50,NCI-H1581,1870 nM
same,Activity,NCI-H2228 [7],0%
same,IC50 at 72 h,[8],> 20000 nM
same,IC50,HCT-116,1560 nM
same,Activity,NCI-H2228 [9],23.28%
same,Activity,NCI-H2228 [10],Dde
same,Activity,NCI-H2228 [11],45.5%
same,Activity,NCI-H2228 [12],Active
same,IC50,NCI-H460,8210 nM
same,Activity,[13],Non-Toxic
same,IC50,NCI-H3122,12 nM
same,Activity,NCI-H2228 [14],7.3%
same,Activity,NCI-H2228 [15],45.1%
same,IC50,KARPAS-299,15 nM
same,inhibition in vivo at 50 mg/kg,NCI-H2228 [16],70.5%
same,half-life at 10 µM,[17],16.3 min
same,Activity,NCI-H2228 [18],17.02%
same,"remaining at 1 h, 10 µM",[19],7.5%
same,IC50,A549,1330 nM
same,Activity,NCI-H2228 [20],2.31%
same,Activity,NCI-H2228 [21],61.31%
same,CLint scaled at 10 µM,[22],153 mL/min/kg
same,"remaining at 1 h, 10 µM",[23],86.2%
same,Activity,NCI-H2228 [24],31.29%
same,IC50,[25],0.71 nM
same,Activity,NCI-H2228 [26],73.23%
same,IC50,MCF7,2220 nM
same,Activity,NCI-H2228 [27],26.77%
same,microsomal CLint at 10 µM,[28],84.9 µL/min/mg
same,Activity,NCI-H2228 [29],18.83%
same,Activity,NCI-H2228 [30],9.4%
same,Activity,NCI-H2228 [31],Dde

# Reference: ChEMBL document CHEMBL5108011, “Design, synthesis and antitumor evaluation of ATP dual-mimic 2,4-diarylaminopyrimidine and aminoindazole conjugates as potent anaplastic lymphoma kinase inhibitors” (Eur J Med Chem, 2022)
